In ChEMBL document CHEMBL3132769, “Fragment growing to retain or alter the selectivity of anchored kinase hinge-binding fragments” (Medchemcomm, 2014):

How the values were obtained:
[1] = target: T1, Serine/threonine-protein kinase BRSK2 (Homo sapiens) (UniProt Q8IWQ3); assay: Inhibition of human truncated BRSK2 expressed in baculovirus assessed as substrate phosphorylation using fluorescence-labelled peptides as substrate at 0.2 uM after 90 mins by microfluidic peptide phosphorylation assay
T1 sequence (whole entry): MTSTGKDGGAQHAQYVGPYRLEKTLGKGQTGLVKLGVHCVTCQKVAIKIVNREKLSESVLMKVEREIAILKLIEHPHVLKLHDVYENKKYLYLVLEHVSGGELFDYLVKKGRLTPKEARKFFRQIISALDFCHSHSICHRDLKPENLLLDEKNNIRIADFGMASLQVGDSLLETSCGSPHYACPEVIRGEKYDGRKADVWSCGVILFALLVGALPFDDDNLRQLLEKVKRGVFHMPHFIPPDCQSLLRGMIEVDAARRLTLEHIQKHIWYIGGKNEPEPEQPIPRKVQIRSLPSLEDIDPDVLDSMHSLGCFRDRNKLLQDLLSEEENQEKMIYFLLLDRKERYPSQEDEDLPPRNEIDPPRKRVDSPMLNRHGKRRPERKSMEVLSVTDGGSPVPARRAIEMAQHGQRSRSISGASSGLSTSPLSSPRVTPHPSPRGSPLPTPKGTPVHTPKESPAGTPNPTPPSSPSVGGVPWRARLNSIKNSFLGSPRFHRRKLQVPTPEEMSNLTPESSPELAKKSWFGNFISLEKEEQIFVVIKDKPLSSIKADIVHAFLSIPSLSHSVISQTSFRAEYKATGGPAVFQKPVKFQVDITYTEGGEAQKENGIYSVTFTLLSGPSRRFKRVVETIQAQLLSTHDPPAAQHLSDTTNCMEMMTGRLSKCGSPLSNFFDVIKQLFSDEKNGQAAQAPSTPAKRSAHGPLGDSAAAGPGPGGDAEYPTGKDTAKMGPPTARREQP

[2] = target: Fibroblast growth factor receptor 1 (Homo sapiens) (UniProt P11362); assay: Inhibition of human FGFR1 catalytic domain expressed in baculovirus assessed as substrate phosphorylation using fluorescence-labelled peptides as substrate at 420 uM after 90 mins by microfluidic peptide phosphorylation assay
[3] = target: Tyrosine-protein kinase Fyn (Homo sapiens) (UniProt P06241); assay: Inhibition of human full length FYN expressed in baculovirus assessed as substrate phosphorylation using fluorescence-labelled peptides as substrate at 420 uM after 90 mins by microfluidic peptide phosphorylation assay
[4] = target: T2, Aurora kinase A (Homo sapiens) (UniProt O14965); assay: Inhibition of human full length AurA expressed in baculovirus assessed as substrate phosphorylation using fluorescence-labelled peptides as substrate at 420 uM after 90 mins by microfluidic peptide phosphorylation assay
T2 sequence (whole entry): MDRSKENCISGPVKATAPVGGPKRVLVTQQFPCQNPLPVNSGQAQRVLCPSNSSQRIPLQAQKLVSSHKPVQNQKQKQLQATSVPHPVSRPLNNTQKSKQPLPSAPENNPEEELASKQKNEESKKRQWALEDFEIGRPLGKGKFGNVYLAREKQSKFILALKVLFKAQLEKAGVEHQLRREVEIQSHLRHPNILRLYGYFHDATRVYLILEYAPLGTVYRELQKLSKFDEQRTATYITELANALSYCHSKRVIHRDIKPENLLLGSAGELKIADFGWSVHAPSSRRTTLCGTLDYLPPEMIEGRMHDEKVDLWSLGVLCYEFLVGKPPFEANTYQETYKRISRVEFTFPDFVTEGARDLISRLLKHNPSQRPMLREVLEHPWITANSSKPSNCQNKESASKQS

[5] = target: T3, Serine/threonine-protein kinase Sgk3 (Homo sapiens) (UniProt Q96BR1); assay: Inhibition of human full length SGK3 expressed in baculovirus assessed as substrate phosphorylation using fluorescence-labelled peptides as substrate at 9 uM after 90 mins by microfluidic peptide phosphorylation assay
T3 sequence (whole entry): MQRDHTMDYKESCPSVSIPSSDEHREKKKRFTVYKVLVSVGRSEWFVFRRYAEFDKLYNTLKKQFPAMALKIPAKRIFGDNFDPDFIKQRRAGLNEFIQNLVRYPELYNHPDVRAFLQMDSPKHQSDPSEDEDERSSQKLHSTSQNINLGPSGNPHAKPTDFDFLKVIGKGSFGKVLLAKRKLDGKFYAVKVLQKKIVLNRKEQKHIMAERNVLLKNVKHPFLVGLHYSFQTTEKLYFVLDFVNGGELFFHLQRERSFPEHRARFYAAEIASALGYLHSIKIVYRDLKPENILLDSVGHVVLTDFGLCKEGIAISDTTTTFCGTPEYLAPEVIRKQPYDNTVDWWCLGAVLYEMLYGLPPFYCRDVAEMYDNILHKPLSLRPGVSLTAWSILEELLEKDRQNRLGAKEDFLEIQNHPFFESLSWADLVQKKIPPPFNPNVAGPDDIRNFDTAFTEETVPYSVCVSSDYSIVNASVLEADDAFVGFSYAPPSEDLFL

[6] = tested on: Fibroblast growth factor receptor 2 (Homo sapiens), P21802 [N549H]; assay: Inhibition of human FGFR2 N549H mutant catalytic domain expressed in baculovirus assessed as substrate phosphorylation using fluorescence-labelled peptides as substrate at 9 uM after 90 mins by microfluidic peptide phosphorylation assay
[7] = target: Serine/threonine-protein kinase PAK 2 (Homo sapiens) (UniProt Q13177); assay: Inhibition of human truncated PAK2 expressed in Escherichia coli cell assessed as substrate phosphorylation using fluorescence-labelled peptides as substrate at 95 uM after 90 mins by microfluidic peptide phosphorylation assay
[8] = target: Receptor-type tyrosine-protein kinase FLT3 (Homo sapiens) (UniProt P36888); assay: Inhibition of human FLT3 catalytic domain expressed in baculovirus assessed as substrate phosphorylation using fluorescence-labelled peptides as substrate at […] after 90 mins by microfluidic peptide phosphorylation assay
[9] = target: Fibroblast growth factor receptor 2 (Homo sapiens) (UniProt P21802); assay: Inhibition of human FGFR2 catalytic domain expressed in baculovirus assessed as substrate phosphorylation using fluorescence-labelled peptides as substrate at 70 uM after 90 mins by microfluidic peptide phosphorylation assay
Chain of Fibroblast growth factor receptor 2 (Homo sapiens) (P21802 22-821 limits assumed): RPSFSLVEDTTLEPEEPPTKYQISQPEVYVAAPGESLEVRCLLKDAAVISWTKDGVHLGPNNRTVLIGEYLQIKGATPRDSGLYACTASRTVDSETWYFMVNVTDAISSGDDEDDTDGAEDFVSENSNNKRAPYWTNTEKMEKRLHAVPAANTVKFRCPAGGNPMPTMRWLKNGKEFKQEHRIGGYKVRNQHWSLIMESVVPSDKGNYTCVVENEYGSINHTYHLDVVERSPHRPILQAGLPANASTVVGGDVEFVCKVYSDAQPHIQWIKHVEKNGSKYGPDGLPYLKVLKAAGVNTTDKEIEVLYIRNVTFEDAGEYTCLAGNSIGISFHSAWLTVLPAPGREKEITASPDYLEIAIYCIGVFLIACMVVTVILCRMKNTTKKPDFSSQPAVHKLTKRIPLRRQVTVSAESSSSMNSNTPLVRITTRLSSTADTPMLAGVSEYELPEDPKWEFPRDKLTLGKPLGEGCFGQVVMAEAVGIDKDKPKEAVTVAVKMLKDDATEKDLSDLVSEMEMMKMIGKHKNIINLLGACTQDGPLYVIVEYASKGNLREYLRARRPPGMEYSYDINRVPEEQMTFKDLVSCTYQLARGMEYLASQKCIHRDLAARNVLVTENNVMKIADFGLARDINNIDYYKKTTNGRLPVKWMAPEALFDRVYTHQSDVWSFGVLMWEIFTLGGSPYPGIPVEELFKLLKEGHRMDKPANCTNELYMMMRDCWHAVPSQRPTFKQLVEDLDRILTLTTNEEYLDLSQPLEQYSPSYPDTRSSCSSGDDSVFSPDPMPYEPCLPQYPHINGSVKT

Chain of Fibroblast growth factor receptor 2 (Homo sapiens), P21802 [N549H] (P21802 whole entry N549H, the tested form may be a part): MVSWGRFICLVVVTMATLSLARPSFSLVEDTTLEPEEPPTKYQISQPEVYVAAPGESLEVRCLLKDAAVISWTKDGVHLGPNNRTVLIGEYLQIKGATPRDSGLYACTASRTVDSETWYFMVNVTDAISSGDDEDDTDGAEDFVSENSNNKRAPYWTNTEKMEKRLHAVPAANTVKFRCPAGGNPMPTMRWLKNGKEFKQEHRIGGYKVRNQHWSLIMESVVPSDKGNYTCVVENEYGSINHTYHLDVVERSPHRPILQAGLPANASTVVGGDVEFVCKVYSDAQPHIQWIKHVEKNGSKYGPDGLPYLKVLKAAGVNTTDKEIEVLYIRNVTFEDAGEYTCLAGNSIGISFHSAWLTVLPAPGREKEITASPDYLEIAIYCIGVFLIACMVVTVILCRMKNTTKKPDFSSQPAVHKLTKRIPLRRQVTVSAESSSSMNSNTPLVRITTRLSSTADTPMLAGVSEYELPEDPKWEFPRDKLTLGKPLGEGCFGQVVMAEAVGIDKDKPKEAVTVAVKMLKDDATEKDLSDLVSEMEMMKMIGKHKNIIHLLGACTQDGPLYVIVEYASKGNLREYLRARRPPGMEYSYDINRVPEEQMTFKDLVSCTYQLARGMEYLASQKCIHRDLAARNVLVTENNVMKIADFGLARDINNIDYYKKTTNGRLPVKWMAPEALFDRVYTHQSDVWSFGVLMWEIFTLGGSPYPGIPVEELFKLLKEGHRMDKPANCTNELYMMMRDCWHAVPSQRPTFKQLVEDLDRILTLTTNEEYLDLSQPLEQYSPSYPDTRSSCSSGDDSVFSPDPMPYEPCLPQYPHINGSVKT
Chain of Tyrosine-protein kinase Fyn (Homo sapiens) (P06241 2-537 limits assumed): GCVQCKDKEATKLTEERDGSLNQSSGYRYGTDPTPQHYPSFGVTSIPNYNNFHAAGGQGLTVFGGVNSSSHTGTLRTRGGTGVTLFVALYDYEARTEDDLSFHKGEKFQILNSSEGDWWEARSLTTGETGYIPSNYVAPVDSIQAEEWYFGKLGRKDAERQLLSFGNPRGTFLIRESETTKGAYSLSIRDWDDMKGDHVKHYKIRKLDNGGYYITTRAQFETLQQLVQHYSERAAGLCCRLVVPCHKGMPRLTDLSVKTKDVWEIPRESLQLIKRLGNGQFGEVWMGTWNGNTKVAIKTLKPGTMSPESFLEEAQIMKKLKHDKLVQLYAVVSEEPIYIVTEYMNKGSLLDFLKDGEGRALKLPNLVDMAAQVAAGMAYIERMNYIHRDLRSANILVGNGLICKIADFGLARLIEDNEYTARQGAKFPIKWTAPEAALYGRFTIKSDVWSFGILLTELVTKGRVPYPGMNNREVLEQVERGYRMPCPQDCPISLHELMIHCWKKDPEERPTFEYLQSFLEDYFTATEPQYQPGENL
Chain of Serine/threonine-protein kinase PAK 2 (Homo sapiens) (Q13177 whole entry, the tested form may be a part): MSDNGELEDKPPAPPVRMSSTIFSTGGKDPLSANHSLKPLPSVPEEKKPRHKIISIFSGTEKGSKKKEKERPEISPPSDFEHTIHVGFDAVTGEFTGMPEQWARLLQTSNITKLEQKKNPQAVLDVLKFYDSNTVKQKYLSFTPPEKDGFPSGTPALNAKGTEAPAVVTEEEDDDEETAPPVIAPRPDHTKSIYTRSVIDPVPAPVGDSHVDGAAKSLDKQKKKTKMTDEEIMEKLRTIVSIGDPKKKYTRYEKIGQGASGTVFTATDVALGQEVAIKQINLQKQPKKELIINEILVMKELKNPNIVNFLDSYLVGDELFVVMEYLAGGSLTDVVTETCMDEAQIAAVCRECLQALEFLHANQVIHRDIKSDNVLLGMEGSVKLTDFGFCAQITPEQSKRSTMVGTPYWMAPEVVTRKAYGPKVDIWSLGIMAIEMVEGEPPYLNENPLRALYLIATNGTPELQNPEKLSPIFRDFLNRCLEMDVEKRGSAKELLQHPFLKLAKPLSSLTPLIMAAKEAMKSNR
Chain of Receptor-type tyrosine-protein kinase FLT3 (Homo sapiens) (P36888 whole entry, the tested form may be a part): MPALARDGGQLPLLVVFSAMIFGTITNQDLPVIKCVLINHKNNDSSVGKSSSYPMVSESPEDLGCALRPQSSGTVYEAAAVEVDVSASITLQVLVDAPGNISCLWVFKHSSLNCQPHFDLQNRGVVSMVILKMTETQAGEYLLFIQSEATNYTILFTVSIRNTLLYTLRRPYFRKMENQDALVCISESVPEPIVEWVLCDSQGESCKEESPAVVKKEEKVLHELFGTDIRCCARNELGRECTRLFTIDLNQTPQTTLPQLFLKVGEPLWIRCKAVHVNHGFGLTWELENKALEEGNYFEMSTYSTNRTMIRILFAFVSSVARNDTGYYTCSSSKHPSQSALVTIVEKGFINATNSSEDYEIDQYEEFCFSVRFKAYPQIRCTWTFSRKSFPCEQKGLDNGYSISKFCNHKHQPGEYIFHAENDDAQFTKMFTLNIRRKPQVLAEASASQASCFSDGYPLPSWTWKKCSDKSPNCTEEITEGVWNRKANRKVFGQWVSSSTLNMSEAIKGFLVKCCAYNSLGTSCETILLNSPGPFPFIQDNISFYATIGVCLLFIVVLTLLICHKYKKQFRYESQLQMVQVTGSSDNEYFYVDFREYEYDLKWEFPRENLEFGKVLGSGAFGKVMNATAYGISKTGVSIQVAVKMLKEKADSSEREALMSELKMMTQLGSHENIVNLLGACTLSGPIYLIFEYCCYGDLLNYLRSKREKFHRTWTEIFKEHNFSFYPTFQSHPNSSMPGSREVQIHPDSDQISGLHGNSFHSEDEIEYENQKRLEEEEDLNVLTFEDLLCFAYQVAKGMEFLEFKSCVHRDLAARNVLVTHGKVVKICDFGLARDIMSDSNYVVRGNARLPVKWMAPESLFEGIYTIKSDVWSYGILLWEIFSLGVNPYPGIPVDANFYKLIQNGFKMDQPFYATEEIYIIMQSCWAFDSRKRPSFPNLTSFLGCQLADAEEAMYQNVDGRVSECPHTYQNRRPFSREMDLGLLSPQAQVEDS
Chain of Fibroblast growth factor receptor 1 (Homo sapiens) (P11362 22-822 limits assumed): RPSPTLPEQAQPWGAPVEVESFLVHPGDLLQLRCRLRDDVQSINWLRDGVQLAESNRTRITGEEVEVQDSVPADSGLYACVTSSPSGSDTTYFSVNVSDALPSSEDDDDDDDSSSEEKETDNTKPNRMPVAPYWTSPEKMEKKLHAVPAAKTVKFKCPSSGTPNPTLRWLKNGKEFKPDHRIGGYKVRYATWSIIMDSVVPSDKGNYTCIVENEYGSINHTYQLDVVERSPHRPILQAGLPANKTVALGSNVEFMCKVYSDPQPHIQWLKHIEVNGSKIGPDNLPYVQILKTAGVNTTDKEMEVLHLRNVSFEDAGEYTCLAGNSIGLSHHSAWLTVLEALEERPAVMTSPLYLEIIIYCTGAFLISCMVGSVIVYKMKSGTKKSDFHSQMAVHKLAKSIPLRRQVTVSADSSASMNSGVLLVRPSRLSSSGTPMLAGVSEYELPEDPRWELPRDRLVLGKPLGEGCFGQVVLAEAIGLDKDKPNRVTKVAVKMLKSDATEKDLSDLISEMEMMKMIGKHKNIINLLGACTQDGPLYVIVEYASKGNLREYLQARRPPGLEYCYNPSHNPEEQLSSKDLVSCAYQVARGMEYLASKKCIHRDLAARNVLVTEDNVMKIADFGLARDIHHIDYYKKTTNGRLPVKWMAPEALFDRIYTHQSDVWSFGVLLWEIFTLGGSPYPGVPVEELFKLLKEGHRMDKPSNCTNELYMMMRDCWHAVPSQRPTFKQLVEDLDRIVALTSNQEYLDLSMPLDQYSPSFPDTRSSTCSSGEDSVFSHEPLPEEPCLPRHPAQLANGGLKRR

Work on Clc1ccc(C2(c3ccc(-c4ncnc5[nH]cnc45)cc3)CCNCC2)cc1 yielded an inhibition [1] of 13%.
Compound c1nc(N2CCOCC2)c2nc[nH]c2n1 has an inhibition [2] of 97%, an inhibition [3] of 64.5% and an inhibition [4] of 96%.
Compound NCC1CN(c2ncnc3[nH]c4cnccc4c23)CCO1 (centres undefined) has an inhibition [5] of 44% and an inhibition [6] of 47.5%.
In the case of NCCc1ccc(-c2ncnc3[nH]cnc23)cc1, the inhibition [7] was 57.5%.
In the case of COC(=O)c1cnc(Nc2cnc(C#N)cn2)cc1NCC1CCNCC1, the inhibition [8] was 21%.
With CNCc1ccc(-c2ncnc3[nH]cnc23)cc1 the inhibition [9] was 27%.
